Assay results reported in paper PMC10065799, “High-throughput profiling of sequence recognition by tyrosine kinases and SH2 domains using bacterial peptide display” (eLife, 2023).

Target: T1, c-Abl kinase domain (Mus musculus, UniProt P00520)
T1 sequence (P00520 242-493 limits assumed): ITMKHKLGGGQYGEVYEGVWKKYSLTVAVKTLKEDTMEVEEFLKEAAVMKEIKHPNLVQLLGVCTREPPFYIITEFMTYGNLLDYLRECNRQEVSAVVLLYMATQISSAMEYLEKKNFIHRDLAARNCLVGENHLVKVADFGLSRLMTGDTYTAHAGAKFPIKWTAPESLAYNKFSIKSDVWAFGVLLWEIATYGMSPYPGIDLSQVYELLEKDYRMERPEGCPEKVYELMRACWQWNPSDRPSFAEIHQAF
Experiment: pTyr-Var library bacterial peptide display kinase screen (enrichment scores)
Assay type: biochemical
Conditions: variant versus reference peptide

## DRVALYVAREG [AACS_Y117_I118V]
  c-Abl difference (mean log2 variant - mean log2 reference): -0.3292
